“And” between values parts separate entries of the source, which are not always exact repeats. Identical values can stand only once.
Target: T1, CXCR2 (Homo sapiens, UniProt P25025)
T1 construct: Promega pNLF1-C (Nluc) #CXCR20TN00; host or cells: HEK293T, transient transfection (PEI)
T1 sequence (P25025 1-360): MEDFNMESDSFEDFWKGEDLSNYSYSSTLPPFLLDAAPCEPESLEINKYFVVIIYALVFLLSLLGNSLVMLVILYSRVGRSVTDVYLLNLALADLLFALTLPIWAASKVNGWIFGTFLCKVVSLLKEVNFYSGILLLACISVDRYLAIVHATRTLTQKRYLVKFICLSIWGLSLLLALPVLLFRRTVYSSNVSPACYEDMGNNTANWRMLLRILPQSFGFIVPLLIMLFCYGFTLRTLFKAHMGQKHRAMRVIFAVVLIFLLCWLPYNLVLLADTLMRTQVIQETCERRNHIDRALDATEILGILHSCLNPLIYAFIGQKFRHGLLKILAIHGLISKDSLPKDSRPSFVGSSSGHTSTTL
Test: Membrane-based NanoBRET association and dissociation kinetic assay
Type: binding
Protocol: 5 μL of a solution of the fluorescent ligand (9a) diluted to varying concentrations (final assay concentrations: 10–100 nM) in the assay buffer and 5 μL of the assay buffer were transferred to a 384-well plate. For the determination of nonspecific binding, we added a solution of a nonlabeled competitor dissolved in the assay buffer (3, final assay concentration: 10 μM) instead. After the addition of 5 μL of a furimazine solution (final assay dilution: 1:350 in assay buffer), plates were incubated for 3 min in the dark at ambient temperature. Subsequently, 20 μL of the membrane preparation (2 μg total protein/well) was added (final assay volume: 35 μL). BRET ratios were measured with a CLARIOstar microplate reader using 620/10 and 475/30 nm emission filters over time at ambient temperature or 37 °C. The obtained data were analyzed using the association kinetics (one ligand concentration) algorithm in PRISM9.5 (GraphPad) to determine association kinetics using a predetermined koff as a constraint.
5 μL of a solution of the fluorescent ligand (9a) diluted to varying concentrations (final assay concentrations: 10–100 nM) in the assay buffer and 5 μL of the assay buffer were transferred to a 384-well plate. In order to determine nonspecific binding, we added a solution of a nonlabeled competitor dissolved in the assay buffer (3, final assay concentration: 10 μM) instead of the 5 μL of the assay buffer. Then, 20 μL of the membrane preparation (2 μg total protein/well) was added, and plates were incubated for 4 h at ambient temperature in the dark. Subsequently, 5 μL of a vivazine solution (final assay dilution: 1:350 in assay buffer) was added. Plates were incubated for further 60 min in the dark at ambient temperature. Thereafter, 1 μL of a solution of a […] competitor dissolved in the assay buffer (3, final assay concentration: 10 μM) was added. For control experiments, we added 1 μL of the assay buffer instead of the competitor solution. BRET ratios were measured with a CLARIOstar microplate reader using 620/10 and 475/30 nm emission filters over time at ambient temperature or 37 °C. Specific BRET ratios were calculated as a difference of total and nonspecific binding. The obtained data were analyzed using the dissociation—one phase exponential decay algorithm in PRISM9.5 (GraphPad) to determine dissociation kinetics.

[1] = CXCR2_Nluc membranes, 37 °C, mean
[2] = CXCR2_Nluc membranes, room temperature, mean
[3] = membranes, 37 °C, 9a 10 nM, single determinations
[4] = membranes, 37 °C, 9a 10 nM, single determinations, koff fixed 0.00569 min-1
[5] = membranes, 37 °C, 9a 25 nM, single determinations
[6] = membranes, 37 °C, 9a 25 nM, single determinations, koff fixed 0.00569 min-1
[7] = membranes, 37 °C, 9a 50 nM, single determinations
[8] = membranes, 37 °C, 9a 50 nM, single determinations, koff fixed 0.00569 min-1
[9] = membranes, 37 °C, 9a 100 nM, single determinations
[10] = membranes, 37 °C, 9a 100 nM, single determinations, koff fixed 0.00569 min-1
[11] = membranes, room temperature, 9a 10 nM, single determinations
[12] = membranes, room temperature, 9a 25 nM, single determinations
[13] = membranes, room temperature, 9a 50 nM, single determinations
[14] = membranes, room temperature, 9a 100 nM, single determinations

koff [1]: 9.48e-05 s⁻¹
kon [1]: 32600 M⁻¹ s⁻¹
tR [1]: 178.8 min
Kd (CXCR2_Nluc membranes, cell-free, 37 °C): 2.91 ± 0.27 nM
Kd (CXCR2_Nluc membranes, room temperature): 1.94 ± 0.27 nM
koff [2]: 3.57e-05 s⁻¹
kon [2]: 18300 M⁻¹ s⁻¹
residence time tr [2]: 485.6 min
residence time (CXCR2_Nluc membranes, room temperature, mean, read-out: residence time tr): 486 ± 28 min
koff [3]: 8.83e-05 s⁻¹
koff [min-1] [3]: 0.00567 min⁻¹ and 0.00464 min⁻¹
tR [3]: 188.6 min and 176.4 min and 215.5 min
kon [4]: 42500 M⁻¹ s⁻¹
kon [M-1 min-1] [4]: 52685.82 M⁻¹ s⁻¹ and 46570.12 M⁻¹ s⁻¹
koff [5]: 0.000102 s⁻¹
koff [min-1] [5]: 0.00658 min⁻¹ and 0.00473 min⁻¹
tR [5]: 162.5 min and 152.0 min and 211.3 min
kon [6]: 29600 M⁻¹ s⁻¹
kon [M-1 min-1] [6]: 40515.73 M⁻¹ s⁻¹ and 31065.33 M⁻¹ s⁻¹
koff [7]: 9.33e-05 s⁻¹
koff [min-1] [7]: 0.0059 min⁻¹ and 0.00531 min⁻¹
tR [7]: 178.6 min and 169.4 min and 188.3 min
kon [8]: 26700 M⁻¹ s⁻¹
kon [M-1 min-1] [8]: 29466.47 M⁻¹ s⁻¹ and 24036.28 M⁻¹ s⁻¹
koff [9]: 0.000105 s⁻¹
koff [min-1] [9]: 0.00726 min⁻¹ and 0.00487 min⁻¹
tR [9]: 159.6 min and 137.7 min and 205.4 min
kon [10]: 23300 M⁻¹ s⁻¹
kon [M-1 min-1] [10]: 25508.45 M⁻¹ s⁻¹ and 19799.72 M⁻¹ s⁻¹
koff [11]: 3.12e-05 s⁻¹
koff [min-1] [11]: 0.00183 min⁻¹ and 0.00215 min⁻¹
tR [11]: 534.2 min and 545.6 min and 464.7 min
koff [12]: 2.9e-05 s⁻¹
koff [min-1] [12]: 0.00253 min⁻¹ and 0.00232 min⁻¹
tR [12]: 575.7 min and 394.8 min and 431.4 min
koff [13]: 2.68e-05 s⁻¹
koff [min-1] [13]: 0.00305 min⁻¹ and 0.00242 min⁻¹
tR [13]: 619.6 min and 328.4 min and 413.1 min
koff [14]: 2.58e-05 s⁻¹
koff [min-1] [14]: 0.00219 min⁻¹ and 0.00238 min⁻¹
tR [14]: 643.1 min and 457.0 min and 420.0 min
SMILES: Cc1ccc([C@H](Nc2c(Nc3cccc(C(=O)NCc4cn(CCOCCOCCOCCNC(=O)c5ccc(C(=O)[O-])c(-c6c7ccc(=[N+](C)C)cc-7oc7cc(N(C)C)ccc67)c5)nn4)c3O)c(=O)c2=O)C(C)(C)C)o1 [9a, (R)-4-((2-(2-(2-(2-(4-((3-((2-((2,2-Dimethyl-1-(5-methylfuran-2-yl)propyl)amino)-3,4-dioxocyclobut-1-en-1-yl)amino)-2-hydroxybenzamido)methyl)-1H-1,2,3-triazol-1-yl)ethoxy)ethoxy)ethoxy)ethyl)carbamoyl)-2-(6-(dimethylamino)-3-(dimethyliminio)-3H-xanthen-9-yl)benzoate]

Source: publication PMC10388362, “Fluorescent Ligands Enable Target Engagement Studies for the Intracellular Allosteric Binding Site of the Chemokine Receptor CXCR2” (Journal of Medicinal Chemistry, 2023)
